We go through 2 compounds from US4762852A, “Benzodioxepanne, process for the synthesis thereof and use thereof” (Societe d'Etudes Scientifiques et Industrielles de l'Ile de …, priority 1985, dated 1988).

For orientation: IC50 means the concentration at which inhibition is half-maximal. The logP is the decadic logarithm of the partition coefficient of the neutral form, usually between octanol and water.

Where two headings read alike, the source gives them in different places.

Data set [1] deals with stereotypies caused in rats by apomorphine. In words: antagonism of stereotypies caused in rats by 0.5 mg/kg subcutaneous apomorphine (Europ. J. Pharmacol., 50, 291-300, 1978). In kind it is in vivo. The note with it: rat. As for the experimental part: (2) The compound of the invention was a powerful anti-dopaminergic agent at the level of the central nervous system. Indeed, in the test in respect of stereotypies caused in rats by apomorphine, a dopaminergic agonistic agent, the compound antogonized that behavioral response at very low levels. Thus, when stereotypies were caused by 0.5 mg/kg of subcutaneous apomorphine, the inhibitor-50 dose of the compound was 0.52 mg/kg intraperitoneally. This test was conducted in accordance with the procedure in Europ. J. Pharmacol., 50, pp. 291-300 (1978). […] The reference compound is disclosed in U.S. Pat. Nos. 4,186,135 (Example 43) and 4,248,885. In another test, the inhibitor doses 50 of the compound were evaluated according to Europ. J. Pharm. 50, pp. 291-300 (1978), the compound being administered at different times (15, 30, 60, 120 and 360 minutes) prior to administration of the agonistic agent, in this case apomorphine, in a dose of 0.5 mg/kg subcutaneous. It is thus possible to judge the power of the antagonism produced by the compound at those different times and also to evaluate the duration of the effect of the compound. […] Catalepsy appeared in fact, 11 minutes after subcutaneous injection of the compound and lasted for more than 5 hours and up to 12 hours in a rat, depending on the method of observation of the phenomenon.

For data set [2] the test system is unchanged. In words: antagonism of stereotypies caused by 1.25 mg/kg intravenous apomorphine (Arzn. Forsch. 10, 1003-1005, 1960). In kind it is in vivo. To be noted: compound subcutaneous, apomorphine 1.25 mg/kg intravenous; for ED50: Rattus norvegicus, sc, read-out: ID50, apomorphine stereotypies. The source says:
(2) The compound of the invention was a powerful anti-dopaminergic agent at the level of the central nervous system. Indeed, in the test in respect of stereotypies caused in rats by apomorphine, a dopaminergic agonistic agent, the compound antogonized that behavioral response at very low levels. […] […] […] The reference compound is disclosed in U.S. Pat. Nos. 4,186,135 (Example 43) and 4,248,885.

The subject of data set [3] is stereotypies caused in a rat by amphetamine. In words: antagonism of stereotypies caused in a rat by amphetamine, 10 mg/kg intravenous (Arz. Forsch. 11, 932-938, 1961). In kind it is in vivo. The note with it: sc.
Data set [4] concerns rat. In words: cataleptigenic effect (Arz. Forsch. 12, 964-968, 1962). It is filed as in vivo. The note with it: sc, subcutaneous. The procedure: (§1) The cataleptigenic dose 50, as determined in accordance with Arz. Forsch. 12, pp. 964-968 (1962), was 5.3 mg/kg subcutaneously in a rat. Another test gave a value which was slightly higher, 8.5 mg/kg subcutaneous, also in a rat.

Data set [5] deals with dopaminergic D2 receptors (Homo sapiens, UniProt P14416). In words: in-vitro binding to dopaminergic D2 receptors, ligand 3H-spiperone. To be noted: read-out: IC50, D2 receptor binding. The source says:
(1) The compound bound very strongly in-vitro to dopaminergic D2 receptors.

Another data set deals with D1 receptor (Homo sapiens, UniProt P21728). In words: in-vitro binding to D1 receptor against 3H-piflutixol. The note with it: second of two values.
Chain of D1 receptor (P21728 whole entry): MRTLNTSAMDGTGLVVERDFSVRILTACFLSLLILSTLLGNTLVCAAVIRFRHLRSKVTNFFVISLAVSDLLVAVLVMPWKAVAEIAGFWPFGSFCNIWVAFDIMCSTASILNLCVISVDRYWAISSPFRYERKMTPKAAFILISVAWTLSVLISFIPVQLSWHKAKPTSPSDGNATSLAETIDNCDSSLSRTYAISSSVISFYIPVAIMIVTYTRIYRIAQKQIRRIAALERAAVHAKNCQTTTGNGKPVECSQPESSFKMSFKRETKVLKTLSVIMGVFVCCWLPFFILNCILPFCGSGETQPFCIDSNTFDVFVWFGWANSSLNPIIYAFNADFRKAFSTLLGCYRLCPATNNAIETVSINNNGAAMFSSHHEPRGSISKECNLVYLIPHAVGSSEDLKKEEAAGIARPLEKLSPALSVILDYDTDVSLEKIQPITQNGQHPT
A further data set in a line: partition coefficient. In kind it is physicochemical.
The next data set in a line: solubility. It is filed as physicochemical.
The test system of data set [6] is stereotypies in relation to amphetamine in a rat. In words: antagonism of amphetamine stereotypies in a rat, amphetamine injected intraperitoneally. In kind it is in vivo. To be noted: read-out: ID50, amphetamine stereotypies.
Data set [7] relates to rat. In words: cataleptigenic effect, another test. In kind it is in vivo. To be noted: sc, subcutaneous, read-out: cataleptigenic dose 50. As for the experimental part:
as §1

For data set [8], the system named is rat. In words: kinetics of the cataleptigenic effect. It is filed as in vivo. The note with it: after subcutaneous injection. As for the experimental part:
In another test, the inhibitor doses 50 of the compound were evaluated according to Europ. J. Pharm. 50, pp. 291-300 (1978), the compound being administered at different times (15, 30, 60, 120 and 360 minutes) prior to administration of the agonistic agent, in this case apomorphine, in a dose of 0.5 mg/kg subcutaneous. It is thus possible to judge the power of the antagonism produced by the compound at those different times and also to evaluate the duration of the effect of the compound. […] Catalepsy appeared in fact, 11 minutes after subcutaneous injection of the compound and lasted for more than 5 hours and up to 12 hours in a rat, depending on the method of observation of the phenomenon.

Data set [9] relates to spontaneous motility of a mouse. In words: reduction of spontaneous motility of a mouse, photoelectric method (J. Pharm. Exp. Ther. 101, 156-162, 1951). It is filed as in vivo. The note with it: intraperitoneal; for ED50: ip. As for the experimental part: (§2) Exp. Ther. 101, pp. 156-162 (1951).
The kinetics of the inhibitor effect of the compound were studied in mice by evaluation of the inhibitor doses 50 at different distances from intraperitoneal injection of the compound. The procedure used was the photoelectric method described in J. Pharm. Exp. Ther. 101, pp. 156-162 (1951). […] Then, the variation in the ID50 between 0.55 and 0.9 indicated persistence of the effect up to 5 hours. The effect then became less clear, but could still be observed more than 5 hours after administration, which is in accordance with the duration attributed to the cataleptigenic effect.

Data set [10] shares this test system. In words: reduction of spontaneous motility of a mouse, Activograph Method. It is filed as in vivo. The note with it: ip, intraperitoneal, read-out: ID50, reduction of spontaneous motility.
Source text: as §2

Another data set relates to vigilance. In words: vigilance of treated animals at higher neuroleptic doses. In kind it is in vivo. The note with it: higher neuroleptic doses which reduce motor function. As for the experimental part:
The compound of the invention has the pharmacological characteristics of a powerful neuroleptic, acting rapidly and in a long-term fashion, and, consequently, can be applied in states of agitation of acute and chronic psychoses. For this and other purposes the daily therapeutic dosage can be from about 5 to 50 mg/day in one or more doses, depending upon the severity of the psychoses. The compound of the invention can be administered in any number of conventional forms such as capsules, tablets, pills, in granulated form or as an injectable solution. Many methods for compounding these preparations are well-known to the art. Substances (or carriers) which are inert relative to the compounds of the invention can be used in these preparations, such as lactose, magnesium stearate, starch, talc, cellulose, levilite, alkali metal lauryl-sulphates, saccharose and other vehicles and carriers commonly employed in pharamaceutical preparations. The examples which follow illustrate several possible pharmaceutical preparations.

Where [11] appears, read: ip, compound intraperitoneal, apomorphine 0.5 mg/kg subcutaneous, read-out: inhibitor-50 dose (ID50), apomorphine stereotypies.

Chain of dopaminergic D2 receptors (P14416 whole entry): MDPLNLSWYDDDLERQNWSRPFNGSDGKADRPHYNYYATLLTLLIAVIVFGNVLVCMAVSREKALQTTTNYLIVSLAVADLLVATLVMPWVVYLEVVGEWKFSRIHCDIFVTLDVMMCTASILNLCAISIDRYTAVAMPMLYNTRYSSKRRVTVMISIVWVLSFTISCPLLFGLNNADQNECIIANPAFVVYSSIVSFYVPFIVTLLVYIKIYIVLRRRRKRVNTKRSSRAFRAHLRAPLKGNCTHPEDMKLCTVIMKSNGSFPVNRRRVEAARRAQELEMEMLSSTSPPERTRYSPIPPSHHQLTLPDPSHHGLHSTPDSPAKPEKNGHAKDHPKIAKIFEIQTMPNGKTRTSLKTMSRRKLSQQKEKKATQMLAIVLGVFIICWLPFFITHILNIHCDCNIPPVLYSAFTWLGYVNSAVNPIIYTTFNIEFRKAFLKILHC

As to `CCN1CCCC1CNC(=O)c1cc(S(=O)(=O)CC)cc2c1OCCCO2` (stereo not shown) [reference compound, N-(1-ethyl-2-pyrrolidinylmethyl) 8-ethylsulphonyl-1,5-benzodioxepanne-6-carboxamide, reference compound], the ED50 in [1] (setting [11]) was found to be 36.4 mg/kg; in [2] it was 156 mg/kg; in data set [3] (Rattus norvegicus, subcutaneous, amphetamine route and dose not stated, read-out: ID50, amphetamine), 39.4 mg/kg; with rat [4] (Rattus norvegicus, which of the two catalepsy tests is not stated, read-out: ED50, cataleptigenic effect), 59.5 mg/kg.

On to `CCS(=O)(=O)c1cc2c(c(C(=O)NCC3CCCN3CC3=CCCCC3)c1)OCCCO2` (stereo not shown) [compound of the invention, N-(1-cyclohexenylmethyl-2 pyrrolidylmethyl)-8-ethylsulphonyl-1,5-benzodioxepanne 6-carboxamide], for which the IC50 was 0.00316 µM in data set [5] and 63.1 µM on D1 receptor. The logP in the data set “partition coefficient” is 0.519. The “solubility in dilute acids” value in “solubility” (dilute acids) is reported as “Soluble”. Also, in the data set “solubility” (ethyl acetate, cold), the “solubility in cold ethyl acetate” value is recorded as “soluble when cold in 30 volumes”. For the same compound, the “solubility in hot ethyl acetate” value in the data set “solubility” (hot ethyl acetate (2 volumes)) is “Highly soluble”. Further, in the data set “solubility” (hot methanol (2 volumes)), the “solubility in hot methanol” value is given as “Highly soluble”. For the same compound, the “solubility in cold methanol” value in “solubility” (methanol, cold) is given as “very weakly soluble”. Besides, the ED50 in [1] (setting [11]) came to 0.52 mg/kg; in data set [1] (sc, 0.25 h, compound subcutaneous 15 minutes before apomorphine 0.5 mg/kg subcutaneous, read-out: ID50, apomorphine stereotypies, 15 minutes after injection) it was 0.066 mg/kg; in data set [1] (sc, compound subcutaneous, apomorphine 0.5 mg/kg subcutaneous, read-out: ID50, apomorphine stereotypies) it was 0.039 mg/kg; in [2] it was 0.092 mg/kg; in data set [3] (rat, compound subcutaneous, amphetamine 10 mg/kg intravenous, read-out: inhibitor dose 50 (ID50), amphetamine stereotypies), 0.062 mg/kg; in [6] (ip, amphetamine intraperitoneal, other experimental conditions) it was 0.4 mg/kg. The ED50 came out at 0.4 mg/kg in data set [6] (sc, compound subcutaneous, action already found at the 12th minute); 5.3 mg/kg in the data set on rat [4] (rat, read-out: cataleptigenic dose 50); 8.5 mg/kg in the data set with rat [7]; 0.69 mg/kg in [9] (5 min, 5 minutes after injection, read-out: ID50, reduction of motility after 5 minutes); 0.58 mg/kg in [9] (photoelectric method, read-out: ID50, reduction of spontaneous motility); 0.93 mg/kg in data set [10]. Further, the “ID50, apomorphine stereotypies” value in data set [2] (rat) stood at 0.082 mg/kg. In the data set with rat [8], the “time to appearance of catalepsy” value stood at 11 min. Moreover, the “time after administration at which inhibitor effect on motility could still be observed” value in [9] is listed as “more than 5 hours”. In addition, the “vigilance at higher neuroleptic doses” value in the data set with vigilance is given as “retain a certain degree of vigilance”.
